Converted amounts (≈) assume the structure as drawn.
Tests used:
[1] = system: MRSA (Staphylococcus aureus) BK12064; test: MIC, MRSA BK12064; settings: MRSA BK12064; Gram +; 24 hours of incubation
[2] = system: Streptococcus sp., BK12233; test: MIC, Streptococcus sp., BK12233; settings: Streptococcus sp., BK12233; Gram +; grown on Tryptic Soy agar medium; 24 hours
[3] = system: clinical isolates of bacteria and fungus (including yeasts); test: General antimicrobial activity, semi-quantitative score on collection of clinical isolates; format: cell-based; settings: semi-quantitative score from number of sensitive bacterial strains at 100 and 200 μM; deduced from number of sensitive bacterial species and average MIC; further: key: −: indicating no activity; +++++: indicating highest activity
Protocol: The growth inhibitory effect of a number of various ITC compounds were tested on large collection of clinical isolates of bacteria and fungus (including yeasts), in order to establish a systematic structure-activity relationship for the ITC compounds. […] To assess the average activity for an individual ITC compound, the semi-quantitative score was calculated for each compound based on the number of sensitive bacterial strains at concentrations of 100 and 200 μM.

[4] = system: Enterococcus sp., BK11936; test: MIC, Enterococcus sp., BK11936; settings: Enterococcus sp., BK11936; Gram +; 24 hours of incubation
Escherichia coli K12 = test: MIC, Escherichia coli K12; settings: Escherichia coli K12; Gram −; 24 hours of incubation
[5] = system: Acinetobacter sp., BK12787; test: MIC, Acinetobacter sp., BK12787; settings: Acinetobacter sp., BK12787; Gram −; 24 hours of incubation
[6] = system: MRSA (Staphylococcus aureus) BK12060; test: MIC, MRSA BK12060; settings: MRSA BK12060; Gram +; 24 hours of incubation
M. avium = test: MIC, M. avium; format: cell-based; settings: M. avium
[7] = system: Enterococcus sp., BK11940; test: MIC, Enterococcus sp., BK11940; settings: Enterococcus sp., BK11940; Gram +; 24 hours of incubation
M. tuberculosis H37Rv = test: MIC, M. tuberculosis H37Rv; format: cell-based
Protocol: (§1) Next, several of the bifunctional ITC compounds were tested for their ability to inhibit the growth of some clinical isolates of Mycobacteria, the results of which are summarized in Table 3 below.

[8] = system: Acinetobacter sp., BK12786; test: MIC, Acinetobacter sp., BK12786; settings: Acinetobacter sp., BK12786; Gram −; 24 hours of incubation
[9] = system: Klebsiella pneumonii BK12261; test: MIC, Klebsiella pneumonii BK12261; settings: Klebsiella pneumonii BK12261; Gram −; 24 hours of incubation
M. tuberculosis 210 = test: MIC, M. tuberculosis 210; format: cell-based
Protocol: as §1

[10] = system: Enterobacter cloacii BK12313; test: MIC, Enterobacter cloacii BK12313; settings: Enterobacter cloacii BK12313; Gram −; 24 hours of incubation
M. tuberculosis W4 = test: MIC, M. tuberculosis W4; format: cell-based
Protocol: as §1

M. tuberculosis AB = test: MIC, M. tuberculosis AB; format: cell-based
Protocol: as §1

[11] = system: Bacillus subtilis BK11590; test: MIC, Bacillus subtilis BK11590; format: cell-based; settings: Gram +, 24 hours of incubation
[12] = system: Pseudomonas aeruginosa BK12348; test: MIC, Pseudomonas aeruginosa BK12348; settings: Pseudomonas aeruginosa BK12348; Gram −; 24 hours of incubation
[13] = system: Enterobacter cloacii BK12315; test: MIC, Enterobacter cloacii BK12315; settings: Enterobacter cloacii BK12315; Gram −; 24 hours of incubation
Shigella sp., BK 12441 = test: MIC, Shigella sp., BK 12441; format: cell-based; settings: Gram −, 24 hours of incubation
[14] = system: Staphylococcus epidermidis BK12798; test: MIC, Staphylococcus epidermidis BK12798; settings: Staphylococcus epidermidis BK12798; Gram +; 24 hours of incubation
[15] = system: Serattia marcescens BK12426; test: MIC, Serattia marcescens BK12426; settings: Serattia marcescens BK12426; Gram −; 24 hours of incubation
M. cansassi = test: MIC, M. cansassi; format: cell-based; settings: M. cansassi
M. bovis BCG = test: microbe, parasite or virus in culture; format: cell-based
M. tuberculosis P = test: MIC, M. tuberculosis P; format: cell-based
Protocol: as §1

[16] = system: Streptococcus sp., BK12235; test: MIC, Streptococcus sp., BK12235; settings: Streptococcus sp., BK12235; Gram +; grown on Tryptic Soy agar medium; 24 hours
Escherichia coli BK12336 = test: MIC, Escherichia coli BK12336; settings: Escherichia coli BK12336; Gram −; 24 hours of incubation
M. tuberculosis CDC1551 = test: MIC, M. tuberculosis CDC1551; format: cell-based
Protocol: as §1

M. intracellularie = test: MIC, M. intracellularie; format: cell-based; settings: M. intracellularie
[17] = system: Staphylococcus epidermidis BK12799; test: MIC, Staphylococcus epidermidis BK12799; settings: Staphylococcus epidermidis BK12799; Gram +; 24 hours of incubation
[18] = system: Pseudomonas aeruginosa BK12347; test: MIC, Pseudomonas aeruginosa BK12347; settings: Pseudomonas aeruginosa BK12347; Gram −; 24 hours of incubation
[19] = system: Klebsiella pneumonii BK12260; test: MIC, Klebsiella pneumonii BK12260; settings: Klebsiella pneumonii BK12260; Gram −; 24 hours of incubation
M. fortuitum = test: MIC, M. fortuitum; format: cell-based; settings: M. fortuitum
Shigella sp., BK 12440 = test: MIC, Shigella sp., BK 12440; format: cell-based; settings: Gram −, 24 hours of incubation
[20] = system: Serattia marcescens BK12421; test: MIC, Serattia marcescens BK12421; settings: Serattia marcescens BK12421; Gram −; 24 hours of incubation
M. tuberculosis W = test: MIC, M. tuberculosis W; format: cell-based
Protocol: as §1

M. scrofulaceum = test: MIC, M. scrofulaceum; format: cell-based; settings: M. scrofulaceum

Q: What does the source list for `S=C=NCCCCCCCCN=C=S` [Compound 42, S═C═N—(CH2)8—N═C═S]?
A: MIC [1]: 4 µg/mL (≈ 17.5 µM); MIC [2]: 1 to 2 µg/mL; General antimicrobial activity [3]: +++++; MIC [4]: 8 µg/mL (≈ 35 µM); MIC (Escherichia coli K12): >64 µg/mL; MIC [5]: >64 µg/mL; MIC [6]: 2 to 4 µg/mL; MIC (M. avium): 32 µg/mL (≈ 140 µM); MIC [7]: 8 µg/mL (≈ 35 µM); MIC (M. tuberculosis H37Rv): 4 µg/mL (≈ 17.5 µM); MIC [8]: >64 µg/mL; MIC [9]: >64 µg/mL; MIC (M. tuberculosis 210): 4 µg/mL (≈ 17.5 µM); MIC [10]: 64 µg/mL (≈ 280 µM); MIC (M. tuberculosis W4): 4 µg/mL (≈ 17.5 µM); MIC (M. tuberculosis AB): 4 µg/mL (≈ 17.5 µM); MIC [11]: 2 µg/mL (≈ 8.76 µM); MIC [12]: >64 µg/mL; MIC [13]: 64 µg/mL (≈ 280 µM); MIC (Shigella sp., BK 12441): >64 µg/mL; MIC [14]: 2 µg/mL (≈ 8.76 µM); MIC [15]: 64 µg/mL (≈ 280 µM); MIC (M. cansassi): 4 µg/mL (≈ 17.5 µM); MIC (M. bovis BCG): 4 µg/mL (≈ 17.5 µM); MIC (M. tuberculosis P): 4 µg/mL (≈ 17.5 µM); MIC [16]: 2 µg/mL (≈ 8.76 µM); MIC (Escherichia coli BK12336): >64 µg/mL; MIC (M. tuberculosis CDC1551): 8 µg/mL (≈ 35 µM); MIC (M. intracellularie): 32 µg/mL (≈ 140 µM); MIC [17]: 2 µg/mL (≈ 8.76 µM); MIC [18]: >64 µg/mL; MIC [19]: >64 µg/mL; MIC (M. fortuitum): 32 µg/mL (≈ 140 µM); MIC (Shigella sp., BK 12440): >64 µg/mL; MIC [20]: 64 µg/mL (≈ 280 µM); MIC (M. tuberculosis W): 4 µg/mL (≈ 17.5 µM); MIC (M. scrofulaceum): 32 µg/mL (≈ 140 µM)

Q: How did the MIC [1] turn out when `S=C=NCCCCCCCN=C=S` [Compound 41, S═C═N—(CH2)7—N═C═S] was run?
A: Its MIC is 4 µg/mL (≈ 18.7 µM).

Q: What about the MIC [2] of the same molecule?
A: The MIC was 1 to 2 µg/mL.

Q: What about the General antimicrobial activity [3] of the same molecule?
A: Its General antimicrobial activity is “+++++”.

Q: And the MIC [4]?
A: Its MIC is 8 µg/mL (≈ 37.3 µM).

Q: And the MIC (Escherichia coli K12)?
A: The MIC was over 64 µg/mL.

Q: And the MIC [5]?
A: Its MIC is 32 µg/mL (≈ 149 µM).

Q: And the MIC [6]?
A: The MIC was 4 µg/mL (≈ 18.7 µM).

Q: And the MIC (M. avium)?
A: Its MIC is 32 µg/mL (≈ 149 µM).

Q: What about the MIC [7] of the same molecule?
A: Its MIC is 8 µg/mL (≈ 37.3 µM).

Q: What about the MIC (M. tuberculosis H37Rv) of the same molecule?
A: Its MIC is 2 µg/mL (≈ 9.33 µM).

Q: And the MIC [8]?
A: The MIC was 32 µg/mL (≈ 149 µM).

Q: What about the MIC [9] of the same molecule?
A: Its MIC is over 64 µg/mL.

Q: And the MIC (M. tuberculosis 210)?
A: Its MIC is 4 µg/mL (≈ 18.7 µM).

Q: And the MIC [10]?
A: The MIC was over 64 µg/mL.

Q: And the MIC (M. tuberculosis W4)?
A: The MIC was 2 µg/mL (≈ 9.33 µM).

Q: What about the MIC (M. tuberculosis AB) of the same molecule?
A: The MIC was 2 µg/mL (≈ 9.33 µM).

Q: What about the MIC [11] of the same molecule?
A: Its MIC is 2 µg/mL (≈ 9.33 µM).

Q: What about the MIC [12] of the same molecule?
A: Its MIC is 64 µg/mL (≈ 299 µM).

Q: What about the MIC [13] of the same molecule?
A: Its MIC is over 64 µg/mL.

Q: And the MIC (Shigella sp., BK 12441)?
A: The MIC was 64 µg/mL (≈ 299 µM).

Q: And the MIC [14]?
A: The MIC was 4 µg/mL (≈ 18.7 µM).

Q: What about the MIC [15] of the same molecule?
A: The MIC was over 64 µg/mL.

Q: What about the MIC (M. cansassi) of the same molecule?
A: The MIC was 8 µg/mL (≈ 37.3 µM).

Q: What about the MIC (M. bovis BCG) of the same molecule?
A: The MIC was 2 µg/mL (≈ 9.33 µM).

Q: And the MIC (M. tuberculosis P)?
A: The MIC was 4 µg/mL (≈ 18.7 µM).

Q: What about the MIC [16] of the same molecule?
A: Its MIC is 1 to 2 µg/mL.

Q: What about the MIC (Escherichia coli BK12336) of the same molecule?
A: The MIC was over 64 µg/mL.

Q: And the MIC (M. tuberculosis CDC1551)?
A: Its MIC is 2 µg/mL (≈ 9.33 µM).

Q: And the MIC (M. intracellularie)?
A: The MIC was 32 µg/mL (≈ 149 µM).

Q: And the MIC [17]?
A: Its MIC is 1 µg/mL (≈ 4.67 µM).

Q: And the MIC [18]?
A: The MIC was 64 µg/mL (≈ 299 µM).

Q: And the MIC [19]?
A: The MIC was over 64 µg/mL.

Q: What about the MIC (M. fortuitum) of the same molecule?
A: The MIC was 32 µg/mL (≈ 149 µM).

Q: What about the MIC (Shigella sp., BK 12440) of the same molecule?
A: Its MIC is 64 µg/mL (≈ 299 µM).

Q: And the MIC [20]?
A: The MIC was over 64 µg/mL.

Q: What about the MIC (M. tuberculosis W) of the same molecule?
A: Its MIC is 2 µg/mL (≈ 9.33 µM).

Q: What about the MIC (M. scrofulaceum) of the same molecule?
A: Its MIC is 32 µg/mL (≈ 149 µM).

— patent publication US9586907B2, “Isothiocyanate compounds, pharmaceutical compositions, and uses thereof” (priority 2006, dated 2017)
